Measurements: patent publication US10221167B2, “Hydroxyalkylamine- and hydroxycycloalkylamine-substituted diamine-arylsulfonamide compounds with selective activity in voltage-gated sodium channels” (Merck Sharp & Dohme Corp., priority 2015, dated 2019)

These molecules were tested against T1, human Nav1.5 channels stably expressed in HEK 293 cells (Homo sapiens, UniProt Q14524) (assay: IonWorks Quattro automated patch-clamp, Nav1.5 (selectivity ratio versus Nav1.7)). Details: selectivity for Nav1.7 over Nav1.5, inactivated state block.
T1 construct: expressed in transfected cells
T1 sequence (Q14524 whole entry): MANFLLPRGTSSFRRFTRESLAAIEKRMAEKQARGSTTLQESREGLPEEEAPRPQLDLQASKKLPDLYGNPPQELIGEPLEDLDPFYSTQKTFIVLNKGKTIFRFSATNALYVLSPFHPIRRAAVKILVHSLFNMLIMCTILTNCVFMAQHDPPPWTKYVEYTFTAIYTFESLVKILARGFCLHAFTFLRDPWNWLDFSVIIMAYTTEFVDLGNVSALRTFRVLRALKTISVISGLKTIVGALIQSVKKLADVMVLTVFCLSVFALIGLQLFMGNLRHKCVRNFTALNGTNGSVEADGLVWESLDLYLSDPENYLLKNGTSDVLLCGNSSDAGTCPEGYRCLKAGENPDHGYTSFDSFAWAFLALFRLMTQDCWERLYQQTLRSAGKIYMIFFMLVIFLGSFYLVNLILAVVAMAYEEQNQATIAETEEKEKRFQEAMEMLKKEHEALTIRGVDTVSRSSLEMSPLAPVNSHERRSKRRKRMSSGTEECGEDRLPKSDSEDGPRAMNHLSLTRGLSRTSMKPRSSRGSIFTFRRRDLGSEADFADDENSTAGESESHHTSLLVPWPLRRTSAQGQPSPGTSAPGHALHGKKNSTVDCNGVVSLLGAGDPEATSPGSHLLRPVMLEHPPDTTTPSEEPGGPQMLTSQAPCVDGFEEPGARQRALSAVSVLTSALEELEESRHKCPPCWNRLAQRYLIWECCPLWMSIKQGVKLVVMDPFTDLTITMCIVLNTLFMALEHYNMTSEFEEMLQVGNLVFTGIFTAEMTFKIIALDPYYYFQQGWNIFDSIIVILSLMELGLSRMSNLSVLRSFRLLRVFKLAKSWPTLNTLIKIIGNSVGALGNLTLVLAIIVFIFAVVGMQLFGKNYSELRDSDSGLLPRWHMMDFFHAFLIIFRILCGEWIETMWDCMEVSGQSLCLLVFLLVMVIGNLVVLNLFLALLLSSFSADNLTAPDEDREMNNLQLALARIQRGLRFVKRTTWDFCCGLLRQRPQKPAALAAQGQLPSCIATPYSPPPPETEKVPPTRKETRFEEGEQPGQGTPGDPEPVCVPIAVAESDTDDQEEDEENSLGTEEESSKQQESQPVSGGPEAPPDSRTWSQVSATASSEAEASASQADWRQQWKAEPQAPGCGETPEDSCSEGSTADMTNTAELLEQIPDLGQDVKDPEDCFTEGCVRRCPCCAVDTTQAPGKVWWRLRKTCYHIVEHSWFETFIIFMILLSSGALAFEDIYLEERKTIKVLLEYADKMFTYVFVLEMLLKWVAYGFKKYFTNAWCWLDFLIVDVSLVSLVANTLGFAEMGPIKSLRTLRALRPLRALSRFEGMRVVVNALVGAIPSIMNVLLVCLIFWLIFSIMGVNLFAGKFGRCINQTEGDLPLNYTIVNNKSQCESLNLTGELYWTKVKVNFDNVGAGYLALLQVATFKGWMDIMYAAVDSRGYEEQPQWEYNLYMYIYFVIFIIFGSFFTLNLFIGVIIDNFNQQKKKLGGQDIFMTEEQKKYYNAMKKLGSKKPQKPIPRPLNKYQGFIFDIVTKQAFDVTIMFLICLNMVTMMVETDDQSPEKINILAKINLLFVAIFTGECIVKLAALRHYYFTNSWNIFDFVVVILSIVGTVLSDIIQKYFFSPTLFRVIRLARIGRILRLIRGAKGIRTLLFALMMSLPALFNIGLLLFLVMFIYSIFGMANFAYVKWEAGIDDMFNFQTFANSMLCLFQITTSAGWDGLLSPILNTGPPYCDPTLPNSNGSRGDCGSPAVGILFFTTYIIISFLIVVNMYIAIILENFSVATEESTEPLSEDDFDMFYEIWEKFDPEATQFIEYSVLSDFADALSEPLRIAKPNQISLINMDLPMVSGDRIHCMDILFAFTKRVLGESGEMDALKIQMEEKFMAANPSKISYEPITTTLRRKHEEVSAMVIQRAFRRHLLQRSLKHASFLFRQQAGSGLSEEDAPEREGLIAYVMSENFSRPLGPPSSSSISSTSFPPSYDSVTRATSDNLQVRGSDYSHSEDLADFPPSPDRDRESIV
Assay type: cell-based
Protocol: (§1) Compounds were tested on human Nav1.7 and Nav1.5 channels stably expressed in HEK 293 cells. […] Cells were sealed on a planar substrate using the Population Patch Plate (PPC) technology. Electrical access was obtained using both nystatin and amphotericin. A double-pulse protocol was used for the determination of IC50 values for inactivated state block. Nav1.7 and Nav1.5 expressing cells were voltage clamped at −100 mV and −110 mV, respectively. A depolarizing prepulse to −10 mV (Nav1.7) or −30 mV (Nav1.5) for 1000 ms followed by a 10 ms repolarization to −100 mV (Nav1.7) or −110 mV (Nav1.5) was given to generate fractional channel inactivation of ˜50%, followed by a 10 ms test pulse to −10 mV (Nav1.7) or −30 mV (Nav1.5) to measure peak current in control conditions and after compound addition. The following recording solutions were used (mM). External: 150 NaCl, 2 CaCl2, 5 KCl, 1 Mg Cl2, 10 HEPES, 12 Dextrose; internal: 120 CsF, 30 CsCl, 10 EGTA, 5 HEPES, 5 NaF, 2 MgCl2.
(§2) For all electrophysiology experiments, offline analysis was used to determine percent inhibition as a function of drug concentration. IC50 values were determined by fitting to the Hill equation.
(§3) The various compounds in Examples 1 through 4 and Tables 1 through 3 exemplified above were assayed for activity and selectivity using the foregoing IonWorks® technique. The results are reported in the following paragraph in a format expressing the identification of the compound with reference Example and compound (e.g. Ex 1-1 is Example 1, compound 1) followed by the observed potency in nM and the ratio of Nav1.7 potency:Nav 1.5 potency as described here. […]
In the case of `NCC(O)CNCCCCNc1cc(F)c(S(=O)(=O)Nc2ncc(F)s2)cc1Cl` (single isomer, unassigned) [EX 2-18, 4-[(4-{[(2S or 2R)-3-amino-2-hydroxypropyl]amino}butyl)amino]-5-chloro-2-fluoro-N-(5-fluoro-1,3-thiazol-2-yl)benzenesulfonamide], the “ratio of Nav1.7 potency:Nav 1.5 potency” value is reported as no less than 1000. For `NC[C@H](O)CNCCCCNc1cc(F)c(S(=O)(=O)Nc2ncns2)cc1Cl` [EX 1-1, 4-[(4-{[(2S)-3-amino-2-hydroxypropyl]amino}butyl)amino]-5-chloro-2-fluoro-N-1,2,4-thiadiazol-5-ylbenzenesulfonamide], the “ratio of Nav1.7 potency:Nav 1.5 potency” value was no less than 660. In the case of `Cc1cc(S(=O)(=O)Nc2ncc(F)s2)c(F)cc1NCCCCNCC1(O)CNC1` [EX 1-4, 2-fluoro-N-(5-fluoro-1,3-thiazol-2-yl)-4-[(4-{[(3-hydroxyazetidin-3-yl)methyl]amino}butyl)amino]-5-methylbenzenesulfonamide], the “ratio of Nav1.7 potency:Nav 1.5 potency” value is reported as no less than 846.

What follows are molecules tested against T2, human Nav1.7 channels stably expressed in HEK 293 cells (Homo sapiens, UniProt Q15858) (assay: IonWorks Quattro automated patch-clamp, state-dependent inhibition of Nav1.7). Details: inactivated state block, double-pulse protocol, holding -100 mV, read-out: potency for the Nav 1.7 sodium ion channel (as measured by IonWorks).
T2 construct: expressed in transfected cells
T2 sequence (Q15858 whole entry): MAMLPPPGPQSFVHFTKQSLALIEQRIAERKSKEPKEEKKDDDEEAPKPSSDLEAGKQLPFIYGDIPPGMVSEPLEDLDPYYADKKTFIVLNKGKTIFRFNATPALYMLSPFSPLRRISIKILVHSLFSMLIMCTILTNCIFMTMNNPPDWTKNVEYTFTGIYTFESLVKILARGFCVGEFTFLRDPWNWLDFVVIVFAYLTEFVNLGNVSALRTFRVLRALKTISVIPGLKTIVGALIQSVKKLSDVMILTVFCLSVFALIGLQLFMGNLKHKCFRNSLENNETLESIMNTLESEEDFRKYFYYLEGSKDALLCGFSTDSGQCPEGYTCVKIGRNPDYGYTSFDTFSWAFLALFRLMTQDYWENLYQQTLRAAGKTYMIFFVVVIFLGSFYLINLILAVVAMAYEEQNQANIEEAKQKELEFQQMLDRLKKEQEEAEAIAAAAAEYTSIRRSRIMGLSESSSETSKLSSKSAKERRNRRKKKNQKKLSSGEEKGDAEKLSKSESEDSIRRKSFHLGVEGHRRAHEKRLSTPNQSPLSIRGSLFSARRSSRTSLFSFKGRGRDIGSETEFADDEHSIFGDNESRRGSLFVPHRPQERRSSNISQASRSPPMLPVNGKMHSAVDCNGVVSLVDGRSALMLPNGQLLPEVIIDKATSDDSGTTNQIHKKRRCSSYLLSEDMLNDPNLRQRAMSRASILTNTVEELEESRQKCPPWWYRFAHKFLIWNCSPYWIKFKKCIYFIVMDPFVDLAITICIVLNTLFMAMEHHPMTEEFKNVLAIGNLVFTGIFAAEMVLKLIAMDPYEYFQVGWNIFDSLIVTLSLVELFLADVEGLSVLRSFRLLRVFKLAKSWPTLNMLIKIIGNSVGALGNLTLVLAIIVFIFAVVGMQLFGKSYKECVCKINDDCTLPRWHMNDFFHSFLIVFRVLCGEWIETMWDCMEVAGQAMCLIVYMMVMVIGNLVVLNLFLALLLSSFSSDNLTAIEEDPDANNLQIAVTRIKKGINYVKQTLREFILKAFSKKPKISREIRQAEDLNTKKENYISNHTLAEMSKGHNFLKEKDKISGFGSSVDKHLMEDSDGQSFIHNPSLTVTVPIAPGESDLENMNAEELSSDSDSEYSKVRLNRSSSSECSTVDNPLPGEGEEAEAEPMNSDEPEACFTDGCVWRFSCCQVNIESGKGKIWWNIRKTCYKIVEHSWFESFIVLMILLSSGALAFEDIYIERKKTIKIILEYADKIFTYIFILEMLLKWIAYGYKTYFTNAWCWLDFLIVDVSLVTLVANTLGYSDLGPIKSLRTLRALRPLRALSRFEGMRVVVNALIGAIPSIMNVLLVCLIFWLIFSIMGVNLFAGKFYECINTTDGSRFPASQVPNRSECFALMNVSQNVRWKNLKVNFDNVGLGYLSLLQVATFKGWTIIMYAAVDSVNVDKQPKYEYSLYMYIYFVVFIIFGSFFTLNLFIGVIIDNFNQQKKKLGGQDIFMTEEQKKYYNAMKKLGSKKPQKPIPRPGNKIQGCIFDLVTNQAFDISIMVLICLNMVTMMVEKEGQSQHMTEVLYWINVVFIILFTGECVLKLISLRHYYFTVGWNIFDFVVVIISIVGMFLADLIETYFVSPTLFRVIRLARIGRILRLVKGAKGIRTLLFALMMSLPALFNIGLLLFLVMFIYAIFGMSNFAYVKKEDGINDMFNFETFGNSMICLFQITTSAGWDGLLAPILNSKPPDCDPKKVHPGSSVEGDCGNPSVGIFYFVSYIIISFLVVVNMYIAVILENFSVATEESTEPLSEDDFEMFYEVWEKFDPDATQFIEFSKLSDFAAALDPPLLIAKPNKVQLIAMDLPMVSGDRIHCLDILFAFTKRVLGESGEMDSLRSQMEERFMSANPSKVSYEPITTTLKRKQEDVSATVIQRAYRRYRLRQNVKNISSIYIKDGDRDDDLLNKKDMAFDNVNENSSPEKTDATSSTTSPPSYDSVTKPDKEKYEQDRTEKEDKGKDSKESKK
Assay type: cell-based
Protocol: as §1, §2, §3
For `NCC(O)CNCCCCNc1cc(F)c(S(=O)(=O)Nc2ncc(F)s2)cc1Cl` (single isomer, unassigned) [EX 2-17, 4-[(4-{[(2R or 2S)-3-amino-2-hydroxypropyl]amino}butyl)amino]-5-chloro-2-fluoro-N-(5-fluoro-1,3-thiazol-2-yl)benzenesulfonamide], the IC50 was 15 nM. With `NCC(O)CNCCCCNc1cc(F)c(S(=O)(=O)Nc2ncc(F)s2)cc1Cl` (single isomer, unassigned) [EX 2-18, 4-[(4-{[(2S or 2R)-3-amino-2-hydroxypropyl]amino}butyl)amino]-5-chloro-2-fluoro-N-(5-fluoro-1,3-thiazol-2-yl)benzenesulfonamide] the IC50 was 16 nM. With `NCC(O)CNCCCCNc1cc(F)c(S(=O)(=O)Nc2nccs2)cc1Cl` (single isomer, unassigned) [EX 2-29, 4-[(4-{[(2R or 2S)-3-amino-2-hydroxypropyl]amino}butyl)amino]-5-chloro-2-fluoro-N-1,3-thiazol-2-ylbenzenesulfonamide] the IC50 was 18 nM. In the case of `NCC(O)CNCCCCNc1cc(F)c(S(=O)(=O)Nc2nccs2)cc1Cl` (single isomer, unassigned) [EX 2-30, 4-[(4-{[(2S or 2R)-3-amino-2-hydroxypropyl]amino}butyl)amino]-5-chloro-2-fluoro-N-1,3-thiazol-2-ylbenzenesulfonamide], the IC50 is reported as 17 nM. With `NC[C@H](O)CNCCCCNc1cc(F)c(S(=O)(=O)Nc2ncns2)cc1Cl` [EX 1-1, 4-[(4-{[(2S)-3-amino-2-hydroxypropyl]amino}butyl)amino]-5-chloro-2-fluoro-N-1,2,4-thiadiazol-5-ylbenzenesulfonamide] the IC50 was 50 nM. Molecule `NCC1(O)CN(CCCCNc2cc(F)c(S(=O)(=O)Nc3ncc(F)s3)cc2Cl)C1` [EX 1-2, 4-({4-[3-(aminomethyl)-3-hydroxyazetidin-1-yl]butyl}amino)-5-chloro-2-fluoro-N-(5-fluoro-1,3-thiazol-2-yl)benzenesulfonamide] has an IC50 of 20 nM. `Cc1cc(S(=O)(=O)Nc2ncc(F)s2)c(F)cc1NCCCCNCC1(O)CNC1` [EX 1-4, 2-fluoro-N-(5-fluoro-1,3-thiazol-2-yl)-4-[(4-{[(3-hydroxyazetidin-3-yl)methyl]amino}butyl)amino]-5-methylbenzenesulfonamide] was tested, and the IC50 was 39 nM. In the case of `O=S(=O)(Nc1ncns1)c1cc(Br)c(NCCCCNCC2(O)CNC2)cc1F` [EX 1-5, 5-bromo-2-fluoro-4-[(4-{[(3-hydroxyazetidin-3-yl)methyl]amino}butyl)amino]-N-1,2,4-thiadiazol-5-ylbenzenesulfonamide], the IC50 is reported as 19 nM. `NC[C@@H](O)CNCCCCNc1cc(F)c(S(=O)(=O)Nc2ncns2)cc1Cl` [EX 1-6, 4-[(4-{[(2R)-3-amino-2-hydroxypropyl]-amino}butyl)amino]-5-chloro-2-fluoro-N-1,2,4-thiadiazol-5-yl-benzenesulfonamide] showed an IC50 of 15 nM. `NC[C@@H](O)CNCCCCNc1cc(F)c(S(=O)(=O)Nc2ncns2)cc1Br` [EX 1-8, 4-[(4-{[(2R)-3-amino-2-hydroxypropyl]-amino}-butyl)amino]-5-bromo-2-fluoro-N-1,2,4-thiadiazol-5-yl-benzenesulfonamide] showed an IC50 of 17 nM. In the case of `O=S(=O)(Nc1ncns1)c1cc(Cl)c(NCCCCN[C@@H]2CNC[C@H]2O)cc1F` [EX 2-2, 5-chloro-2-fluoro-4-[(4-{[(3R,4R)-4-hydroxypyrrolidin-3-yl]amino}butyl)amino]-N-1,2,4-thiadiazol-5-ylbenzenesulfonamide], the IC50 is reported as 23 nM. For `O=S(=O)(Nc1ncc(F)s1)c1cc(Cl)c(NCCCCN[C@@H]2CNC[C@H]2O)cc1F` [EX 2-20, 5-chloro-2-fluoro-N-(5-fluoro-1,3-thiazol-2-yl)-4-[(4-{[(3R,4R)-4-hydroxypyrrolidin-3-yl]amino}butyl)amino] benzenesulfonamide], the IC50 was 40 nM. Molecule `O=S(=O)(Nc1ncc(F)s1)c1cc(Cl)c(NCCCCNC[C@H]2C[C@@H](O)CN2)cc1F` [EX 2-23, 5-chloro-2-fluoro-N-(5-fluoro-1,3-thiazol-2-yl)-4-{[4-({[(2R,4R)-4-hydroxypyrrolidin-2-yl]methyl}amino)butyl]amino} benzenesulfonamide] has an IC50 of 23 nM. For `O=S(=O)(Nc1ncc(F)s1)c1cc(Cl)c(NCCCCNC[C@H]2C[C@H](O)CN2)cc1F` [EX 2-24, 5-chloro-2-fluoro-N-(5-fluoro-1,3-thiazol-2-yl)-4-{[4-({[(2R,4S)-4-hydroxypyrrolidin-2-yl]methyl}amino)butyl]amino} benzenesulfonamide], the IC50 was 30 nM. `O=S(=O)(Nc1ncc(F)s1)c1cc(Br)c(NCCCCNCC2(O)CNC2)cc1F` [EX 2-25, 5-bromo-2-fluoro-N-(5-fluoro-1,3-thiazol-2-yl)-4-[(4-{[(3-hydroxyazetidin-3-yl)methyl]amino}butyl)amino] benzenesulfonamide] was tested, and the IC50 was 15 nM. Molecule `O=S(=O)(Nc1nccs1)c1cc(Cl)c(NCCCCNCC2(O)CNC2)cc1F` [EX 2-28, 5-chloro-2-fluoro-4-[(4-{[(3-hydroxyazetidin-3-yl)methyl]amino}butyl)amino]-N-1,3-thiazol-2-ylbenzenesulfonamide] has an IC50 of 18 nM. `O=S(=O)(Nc1nccs1)c1cc(Cl)c(NCCCCN[C@@H]2CNC[C@H]2O)cc1F` [EX 2-31, 5-chloro-2-fluoro-4-[(4-{[(3R,4R)-4-hydroxypyrrolidin-3-yl]amino}butyl)amino]-N-1,3-thiazol-2-ylbenzenesulfonamide] was tested, and the IC50 was 30 nM. `NCC[C@@H](CO)NCCCCNc1cc(F)c(S(=O)(=O)Nc2nccs2)cc1Cl` [EX 2-32, 4-[(4-{[(1S)-3-amino-1-(hydroxymethyl)propyl]amino}butyl)amino]-5-chloro-2-fluoro-N-1,3-thiazol-2-ylbenzenesulfonamide] was tested, and the IC50 was 19 nM. In the case of `NCC[C@@H](CO)NCCCCNc1cc(F)c(S(=O)(=O)Nc2ncc(F)s2)cc1Cl` [EX 2-33, 4-[(4-{[(1S)-3-amino-1-(hydroxymethyl)propyl]amino}butyl)amino]-5-chloro-2-fluoro-N-(5-fluoro-1,3-thiazol-2-yl)benzenesulfonamide], the IC50 is reported as 20 nM. Work on `NCC[C@@H](CO)NCCCCNc1cc(F)c(S(=O)(=O)Nc2ncns2)cc1Cl` [EX 2-34, 4-[(4-{[(1S)-3-amino-1-(hydroxymethyl)propyl]amino}butyl)amino]-5-chloro-2-fluoro-N-1,2,4-thiadiazol-5-ylbenzenesulfonamide] yielded an IC50 of 18 nM. With `NC[C@@H](CO)NCCCCNc1cc(F)c(S(=O)(=O)Nc2nccs2)cc1Cl` [EX 2-35, 4-[(4-{[(1S)-2-amino-1-(hydroxymethyl)ethyl]amino}butyl)amino]-5-chloro-2-fluoro-N-1,3-thiazol-2-ylbenzenesulfonamide] the IC50 was 15 nM. `O=S(=O)(Nc1nccs1)c1cc(Cl)c(NCCCCN[C@H]2CNC[C@@H]2O)cc1F` [EX 2-38] showed an IC50 of 40 nM. Molecule `NC[C@H](CO)NCCCCNc1cc(F)c(S(=O)(=O)Nc2ncc(F)s2)cc1Cl` [EX 2-40, 4-[(4-{[(1R)-2-amino-1-(hydroxymethyl)ethyl]amino}butyl)amino]-5-chloro-2-fluoro-N-(5-fluoro-1,3-thiazol-2-yl)benzenesulfonamide] has an IC50 of 50 nM. `O=S(=O)(Nc1ncns1)c1cc(Br)c(NCCCCN[C@H]2CNC[C@@H]2O)cc1F` [EX 2-43, 5-bromo-2-fluoro-4-((4-(((3S,4S)-4-hydroxypyrrolidin-3-yl)amino)butyl)amino)-N-(1,2,4-thiadiazol-5-yl)benzenesulfonamide] gave an IC50 of 15 nM.
